Data set [1] has as its target T1, P2X7R (Rattus norvegicus, UniProt Q64663).
T1 sequence (Q64663 1-595): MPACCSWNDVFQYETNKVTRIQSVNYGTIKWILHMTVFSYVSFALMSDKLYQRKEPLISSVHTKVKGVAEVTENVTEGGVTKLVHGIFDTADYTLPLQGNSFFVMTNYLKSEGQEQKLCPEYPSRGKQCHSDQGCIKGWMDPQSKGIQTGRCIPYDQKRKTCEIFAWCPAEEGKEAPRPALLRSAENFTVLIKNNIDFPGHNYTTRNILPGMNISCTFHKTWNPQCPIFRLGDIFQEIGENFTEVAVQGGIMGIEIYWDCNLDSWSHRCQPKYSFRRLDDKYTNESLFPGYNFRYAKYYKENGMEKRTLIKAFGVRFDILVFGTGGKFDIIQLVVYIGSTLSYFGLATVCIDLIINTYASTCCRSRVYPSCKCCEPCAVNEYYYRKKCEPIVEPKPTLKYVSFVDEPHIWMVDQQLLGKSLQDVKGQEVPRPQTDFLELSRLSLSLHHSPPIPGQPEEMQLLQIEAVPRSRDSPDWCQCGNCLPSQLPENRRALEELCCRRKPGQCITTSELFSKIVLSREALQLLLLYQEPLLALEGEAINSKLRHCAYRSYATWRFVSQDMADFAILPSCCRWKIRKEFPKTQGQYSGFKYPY
The note with it: concentrations of 10 to 300 μM; cited from earlier work.

A further data set deals with other P2X receptors. The note with it: cited from earlier work.
The test system of data set [2] is P2X7R. Conditions: cited from earlier work.
A further data set deals with mice. In words: Porsolt's forced swim test. In kind it is in vivo, mouse. The method, then:
Further validation of role of P2X7R in affective disorders was performed by examining its expression pattern in response to stress and treatment with antidepressant drugs. […] In parallel, a control group of mice was given vehicle solution (i.e. without paroxetine) using the same treatment regiment while a second control group of mice was left undisturbed and stress-free (i.e. untreated) during the same period of the experiments. At the end of the long-term treatment, part of the mice of each experimental group were tested in the dark/light box (test of anxiety behaviour) and in the Porsolt's forced swim test (test of depressive-like behaviour) to confirm the effectiveness of the treatment (FIG. 5). […] The other part of the experimental groups (i.e. mice without test experience) were decapitated, brains rapidly removed and frozen at −80° C. until usage.
The effects of P2X7R inhibition on depressive-like behaviour was assessed 24 hours and 48 hours after infusion of siRNA, control or vehicle according to the standard test paradigm, the Porsolt's forced swim test (Porsolt et al., Arch. Int. Pharmacodym. 229 (1977), 327-336; Porsolt, Rev. Neurosci. 11 (2000), 53-58). […] Compared to vehicle application, no influence of control double stranded RNA (5′-[…]-3′) on floating behaviour (passive stress coping) was detected. […] This interpretation becomes moreover evident when the effects of antidepressants on passive stress coping behaviour in the forced swim test are visualized (FIG. 5). Passive stress coping behaviour increased after acute intrahippocampal injection (bilateral, dentate gyrus) of siRNA targeting P2X7R. The Porsolt's forced swim test is a standard test used to assess the effectiveness of antidepressants and it has been proven by many studies that the test is selectively sensitive for these effects, given that the right animal model is used. The paradigm has been widely used to test pharmaceutical compounds and to validate animal models of depression, which show an increase in passive behaviour as do the mice where P2X7R has been inhibited (siRNA).
The forced swim test is a standard test that measures primary stress-induced reductions in avoidance or escape, termed behavioural despair. The test is used to determine the effectiveness of antidepressants, test new pharmaceutical compounds and validate animal models of depression (Porsolt et al., Arch. Int. Pharmacodym. 229 (1977), 327-336; Porsolt, Rev. Neurosci. 11 (2000), 53-58; Rénéric et al., Behav. Brain Res. 136 (2002), 521-532; Page et al., Psychopharmacology 165 (2003), 194-201; Kelliher et al., Psychoneuroendocrinology 28 (2003), 332-347). The test consists of placing a mouse for a period of 5 minutes into a glass cylinder containing water. Under such circumstances, the mouse cannot touch the bottom of the cylinder and is thus forced to swim. Time, latency and frequency of struggling versus floating are scored as behavioural parameters. […] Increased struggling (i.e. active attempts to escape) indicates active coping behaviour that can be interpreted as an improvement of depression-like symptoms. For example, treatment with serotonergic antidepressants reduce the total time spent floating (Borsini, Neurosci. Biobehav. Rev. 19 (1995), 377-395; Redrobe and Bourin, Psychopharmacology 138 (1998), 198-206, and in parallel increases the time of active behaviour (i.e. swimming or struggling; Lucki et al., Psychopharmacology 155 (2001), 315-322).
The behaviour of individual mice was assessed using the Porsolt's forced swim test 24 hours after injection of vehicle solution, KN-62, or oATP. A pre-exposure of 5 minutes to the test was performed 15-17 minutes after administration of vehicle, KN-62, or oATP. A description of the Porsolt's forced swim test is given in example 9. […]

A further data set deals with T2, human P2X7R (Homo sapiens, UniProt Q99572).
T2 construct: expressed in transfected cells
T2 sequence (Q99572 1-595): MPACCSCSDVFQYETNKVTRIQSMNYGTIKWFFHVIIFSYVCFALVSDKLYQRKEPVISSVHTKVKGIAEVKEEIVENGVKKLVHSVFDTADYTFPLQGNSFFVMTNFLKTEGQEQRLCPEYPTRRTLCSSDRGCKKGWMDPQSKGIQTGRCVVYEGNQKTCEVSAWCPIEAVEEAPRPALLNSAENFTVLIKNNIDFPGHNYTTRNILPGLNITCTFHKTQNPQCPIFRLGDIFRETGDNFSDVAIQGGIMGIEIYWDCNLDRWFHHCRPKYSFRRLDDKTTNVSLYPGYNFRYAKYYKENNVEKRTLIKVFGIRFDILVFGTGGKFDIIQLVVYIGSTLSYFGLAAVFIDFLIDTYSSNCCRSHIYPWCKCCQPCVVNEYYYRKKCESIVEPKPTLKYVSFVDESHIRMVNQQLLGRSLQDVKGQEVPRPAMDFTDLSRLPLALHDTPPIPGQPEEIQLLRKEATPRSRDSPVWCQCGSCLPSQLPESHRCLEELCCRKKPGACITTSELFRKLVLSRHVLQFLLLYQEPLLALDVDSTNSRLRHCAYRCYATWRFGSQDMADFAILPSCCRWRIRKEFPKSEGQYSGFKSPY
In words: Calcium entry in HT-22 cells overexpressing human P2X7R (Fluo-4 AM). Conditions: 20 μM BzATP or 50 μM tenidap. In kind it is cell-based. An excerpt: Yet another method for identifying P2X7R agonists was devised by generating a immortalised mouse cell line that overexpresses the human P2X7R gene under the control of the human cytomegalovirus (CMV) early promoter/enhancer region. The human P2X7R cDNA was inserted into the pcDNA3.1 vector (Invitrogen) and transfected into the mouse hippocampal cell line HT-22 using Lipofectamine (Invitrogen) according to the manufacturer's specifications. One day after transfection, culture medium containing 500 μg/ml G418 was added to the cells. Resistant clones were separately isolated and cultured 14 days after applying the selection medium.
The agonistic activity of a compound was evaluated by measuring calcium entry in the cells that overexpress the human P2X7R. Cells were cultured in 96 well plates and incubated at 37° C. with 5% C02 DMEM with 10% foetal calf serum (Gibco) until they reached confluence. Cells were then loaded for one hour with 10 μM of Fluo4 AM (Molecular Probes). Fluo-4 AM is a fluorescent dye that binds to intracellular calcium. […] Agonist activity was detected by measuring an increase in calcium influx which results in increased binding to Fluo4 AM and increased fluorescence. Changes in fluorescence signal are measured using a Fluostar Optima plate reader (BMG biotech). […] Thus, both compound stimulated the activity of P2X7R which results in an influx of ions into the cells.

The test system of data set [3] is P2X7R. The data set is classed as in vivo, mouse.
Procedure: The brains from stress-free mice were shock frozen, cut into 16 μm slices and fixed with paraformaldehyde for 5 minutes. The sections were blocked for 30 minutes at room temperature with 1:10 horse serum. All antibodies were diluted in TBST buffer (Tris-buffered saline with 0.05% Tween-20). The first antibody was used in a dilution 1:200 and incubated overnight. All washes were performed with TBST buffer. As a secondary antibody, an anti-goat IgG biotinylated (Vector Laboratories) was used and detection was performed using the streptavidin-biotin-horse-radish peroxidase complex system (Vector Laboratories) in combination with diaminobencidine. Slides were counterstained with toluidine blue using standard procedures. The same procedure in the absence of the primary antibody was performed as a negative control. As a positive control to test the Preservation of the tissue was verified with an antibody specific for the protein Patched1 (Santa Cruz Biotechnology). Patched1 was used as positive control since it stains all relevant brain structures and is not affected by stress or antidepressants.
At the end of the experiment, the mice were sacrificed and the brains were examined to confirm the location and efficiency of the siRNA injections. For this purpose the brains were cut into sections and the slides were stained by immunohistochemistry using the above mentioned protocols. […]
[4] abbreviates: 100 nM KN-62 or 10 μM oATP, 1 μl each side, dentate gyrus, 24 hours after injection, DBA/201a mice.

As to `CC(C)NCC(O)COc1cccc2ccccc12` (racemic) [DL-propanolol], on P2X7R [1], the “opening of the cation channel activity of P2X7R” value (from here on “opening”) is “without affecting” and the “pore-forming activity of P2X7R” value is “inhibit the pore-forming activity”.

Turning to `Nc1ncnc2c1ncn2[C@@H]1O[C@H](COP(=O)(O)OP(=O)(O)OP(=O)(O)O)[C@@H](O)[C@H]1O` [ATP], the “ATP concentrations at which other P2X receptors activate” value in the data set with other P2X receptors is at most 100 µM. Besides, the “levels of ATP required to achieve activation of P2X7R” value in the data set with P2X7R [2] is recorded as over 1 mM. Regarding `CC(C)NC[C@@H](O)COc1cccc2ccccc12` [D-propanolol], on P2X7R [1], the “opening” value is reported as “without affecting” and the “pore-forming activity of P2X7R” value was “inhibit the pore-forming activity”. Regarding `CN([C@@H](Cc1ccc(OS(=O)(=O)c2cccc3cnccc23)cc1)C(=O)N1CCN(c2ccccc2)CC1)S(=O)(=O)c1cccc2cnccc12` [KN-62, 1-(N,O-bis[5-isoquinolinesulphonyl]-N-methyl-L-tyrosyl)-4-phenylpiperazine], in the data set on mice (setting [4]), the “active escape attempts (time, frequency, latency of struggling) in the forced swim test” value is listed as “no changes” and the “passive behaviour (time, frequency, latency of floating) in the forced swim test” value is “no changes”. On to `CC(CCc1ccccc1)NCC(O)c1ccc(O)c(C(N)=O)c1` (stereo not drawn) [labetolol], for which, at P2X7R [1], the “opening” value is reported as “without affecting” and the “pore-forming activity of P2X7R” value was “inhibit the pore-forming activity”. Consider `Fc1ccc([C@@H]2CCNC[C@H]2COc2ccc3c(c2)OCO3)cc1` [paroxetine], for which the “passive stress coping behaviour (floating) in the forced swim test” value with mice (paroxetine by gavage, 10 mg/kg bodyweight twice per day, 28 days, male mice) is listed as “decreased”. In the case of `NC(=O)N1C(=O)/C(=C(\O)c2cccs2)c2cc(Cl)ccc21` [tenidap, 5-chloro-2,3-dihydro-2-oxo-3-(2-thienylcarbonyl)-indole-1-carboxamide], the “calcium influx (Fluo-4 AM fluorescence intensity)” value on human P2X7R was “rapid increase in fluorescence intensity”. In the case of “P2X7R specific siRNA: double stranded siRNA, 5′-GUGGGUCUUGCACAUGAUCTT-3′ and 5′-GAUCAUGUGCAAGACCCACTT-3′ annealed (chemistry not given here)”, the “local inflammation or infiltration at the hippocampus” value in the data set on P2X7R [3] (mouse, in vivo) is recorded as “did not produce any sign of local inflammation or infiltration”. Moreover, the “inhibition of P2X7R protein expression” value in the data set with P2X7R [3] (siRNA injected near the dentate gyrus, compared to vehicle or control double stranded RNA) came out at 80%. The “floating behaviour (passive stress coping) in the forced swim test” value in the data set on mice (intrahippocampal bilateral (dentate gyrus), 0.1 nmol/μl, 1 μl per side, 24 hours and 48 hours after infusion) is “significant increase in passive behaviour”.

Source of the values: patent US7767398B2, “Means and methods for diagnosing and treating affective disorders” (Affectis Pharmaceuticals AG, priority 2003, dated 2010).
